In patent US20250325516A1, “SEROTONIN ANALOGUES FOR USE IN TREATING METALLOPTOSIS-ASSOCIATED DISORDERS” (INSTITUT CURIE, priority 2022, published 2025):
“Also recorded” adds a separate entry of the source. Where a name gives a salt, the structure may show the parent alone.

Key:
[1] = tested on: PDAC cells; test: Anti-ferroptotic activity: BODIPY-C11 flow cytometry, PDAC cells co-treated with RSL3 (FIG. 8); format: cell-based; details: RSL3 200 nM, compounds 10 μM
Procedure: (§1) Pancreatic Ductal Adenocarcinoma (PDAC) cells were grown at 37° C. and 5% CO2 using medium prepared based on previously described (https://doi.org/10.1053/j.gastro.2004.03.058).
PDAC cells were seeded on 6 well plates at the density of 2×10^5 cells/well. RSL3 (200 nM) was added along with compounds (10 μM for screening) on the following day and after 23 hr, BODIPY (4 μM) was added for 1 hr. The media was removed and the cells were washed with PBS twice before typsinization. The cells were harvested, pelleted, washed with PBS and finally PBS buffer containing 10% FBS and EDTA, was added for flow cytometry. The results are shown in FIG. 8 and this enabled us to establish a robust structure activity relationship on the serotonin scaffold.

[2] = tested on: PDAC cells; test: Click-labelling fluorescence microscopy with LysoTracker and organelle antibodies, PDAC cells (FIG. 9); format: cell-based; details: 10 μM, 3 h
Procedure: Pancreatic Ductal Adenocarcinoma (PDAC) cells were grown at 37° C. and 5% CO2 using medium prepared based on previously described (https://doi.org/10.1053/j.gastro.2004.03.058). Cells were plated on cover slips 24 h prior to the experiment. The cells were treated with 10 µM of compounds for 3 h and LysoTracker Deep Red (ThermoFisher Scientific L12492, 1:10000) according to the manufacturer's protocol. Subsequently, cells were washed three times with 1×PBS and fixed with 2% paraformaldehyde (w/v) in 1×PBS for 12 min, and then washed three times with 1×PBS. After fixation, cells were permeabilized with 0.1% Triton X-100 (v/v) in 1×PBS for 5 min and washed three times with 1×PBS. Then, cells were blocked in 2% BSA, 0.2% Tween-20 (w/v)/1×PBS (blocking buffer) for 20 min at RT. The click reaction cocktail was prepared from Click-iT EdU Imaging Kits (ThermoFisher Scientific, C10337) according to the manufacturer's protocol. Briefly, 868 μL of 1× Click-iT reaction buffer was mixed with 40 μl CuSO4 solution, 2 μL Alexa Fluor azide and 90 μl reaction buffer additive (sodium ascorbate) to reach a final volume of 1 mL. Cover slips were incubated with 50 μl of the click reaction cocktail in the dark at RT for 30 minutes, then washed three times with 1×PBS. Further, cells were incubated with the relevant antibody in blocking buffer for 1 h at room temperature and washed three times with blocking buffer. Then, cells were incubated with secondary antibodies for 1 h. Finally, cover slips were washed three times with 1×PBS and mounted using VECTASHIELD (Vector Laboratories) containing DAPI and were sealed with nail varnish Express manucure (Maybelline, 16P201). Fluorescence images were acquired using a Deltavision real-time microscope (Applied Precision). 100×/1.4NA objectives were used for 2D and 3D acquisitions that were deconvoluted with SoftWorx (Ratio conservative-10 iterations, Applied Precision) and processed with ImageJ.

[3] = Cyclic voltammetry of FeCl3 after addition of compounds (FIG. 10b); format: binding; details: 1 mM FeCl3 in 0.3 M nBu4NBF4 in MeCN, scan rate 2 V/s
Procedure: Cyclic voltammetry experiments were performed with a three-electrode cell under argon. Saturated Calomel Electrode (SCE) was used as reference, a steady Glassy Carbon (GC) electrode of diameter 3 mm was selected as working electrode and a Platinum wire as counter-electrode. All cyclic voltammograms were recorded at RT with a μ-autolab III from Metrohm using Nova software with a scan rate of 2 V/s. MeCN was used as a degassed HPLC grade from Carlo Erba. Water was mQ H2O. Stock solution of FeCl3 (100 mM) and Lip-1, A3, A0 and DFO (20 mM) were prepared with 0.3 M nBu4NBF4 in MeCN. 1 mM FeCl3 in 0.3 M nBu4NBF4 in MeCN (1 mL) was used as working solution for recording and subsequently equivalents of compounds were added, stirred and recorded.

[4] = Colorimetric assessment of metal complex formation in aqueous solution; format: binding; details: for colour of solution in the presence of FeCl3 and CuSO4, indicative of complex formation: aqueous solution, 3 equiv. compound, C=0.1 M; for complex formation with Fe(II), Fe(III) and Cu(II): colorimetric complexation studies in solution (FIG. 1) and NMR spectroscopy (FIG. 2)
Procedure: […] assessment of complex formation: To an aqueous solution of serotonin hydrochloride (3 equiv., C=0.1 M) or A3 formic salt (3 equiv., C=0.1 M) iron (III) chloride (1 equiv.) or copper (II) sulfate (C=0.1 M) was added. A color change characterized the formation of metal complexes.

[5] = tested on: HMLER cells; test: Click-chemistry fluorescence microscopy with LysoTracker co-staining, HMLER cells; format: cell-based, human; details: 1 μM, 3 h, LysoTracker 45 mins, Alexa-488-N3 click
Procedure: (§2) All cells were grown in an incubator equilibrated at 37° C. with 5% CO2, grown to confluence and split with Trypsin/EDTA (Gibco, TRYPGIB01) once or twice a week according to confluence. HMLER cells ([…]) naturally repressing E-cadherin, obtained from human mammary epithelial cells infected with a retrovirus carrying hTERT, SV40 and the oncogenic allele H-rasV12, and HMLER CD44 and TFRC ko clones were cultured in DMEM/F12 (Thermo Fisher Scientific, 31331093) supplemented with 10% FBS (v/v) (Thermo Fisher Scientific, 10270106), 10 μg/mL insulin (Sigma-Aldrich, 10516), 0.5 μg/mL hydrocortisone (Sigma-Aldrich, H0888) and 0.5 μg/ml puromycin (Life Technologies, A11138-02), unless stated otherwise. PDAC053 T cells were grown in serum-free ductal medium: DMEM/F12 supplemented with 0.61 g/500 mL nicotinamide (Sigma-Aldrich, 3376), 2.50 g/500 mL glucose (Sigma-Aldrich, G6152), 1:200 ITS+ (Corning, 354352), 1:20 Nu-serum IV (Corning, 355104), 100 ng/ml cholera toxin, 1 μM dexamethasone (Sigma-Aldrich, D4902), 50 nM 3,3′,5-triiodo-L-thyronine (Sigma-Aldrich, T6397) and 1× PenStrep. BELA cells were cultured using published procedures (Nat. Comm. doi: 10.1038/ncomms14750).
Fluorescence microscopy of clickable serotonin analog A3: Cells were plated on cover slips 24 h prior to the experiment. […]

[6] = tested on: BELA cells; test: RhoNox-M (lysosomal Fe2+ probe) flow cytometry; format: cell-based; details: 10 μM, 24 h
Procedure: as §2
(§3) Bodipy-C11 (Thermo Fisher Scientific, D3861) were used according to the manufacturer's protocol. RhoNox-M (in-house) was added to live cells prior to flow cytometry analysis for 1 h at a concentration of 1 μM. For the Annexin/PI assay (Thermo Fisher Scientific, V13245, manufacturer's protocol) BELA cells were treated with RSL3 in the presence or absence of 1 μM Liproxstatin-1 (Sigma-Aldrich, SML1414) or 10 μM A3 for 24 h. Cells were then washed twice with ice-cold 1×PBS and suspended in incubation buffer prior to being analyzed by flow cytometry. The manufacturer's protocol was followed. For each condition, at least 10,000 cells were counted. Data were recorded on an Attune (Thermo Fisher Scientific) and processed using FlowJo (FLOWJO, LLC).

[7] = tested on: HMLER cells; test: ICP-MS of total cellular iron and copper; format: cell-based, human; details: 100 nM, 3 h or 24 h
Procedure: All cells were grown in an incubator equilibrated at 37° C. with 5% CO2, grown to confluence and split with Trypsin/EDTA (Gibco, TRYPGIB01) once or twice a week according to confluence. HMLER cells ([…]) naturally repressing E-cadherin, obtained from human mammary epithelial cells infected with a retrovirus carrying hTERT, SV40 and the oncogenic allele H-rasV12, and HMLER CD44 and TFRC ko clones were cultured in DMEM/F12 (Thermo Fisher Scientific, 31331093) supplemented with 10% FBS (v/v) (Thermo Fisher Scientific, 10270106), 10 μg/mL insulin (Sigma-Aldrich, 10516), 0.5 μg/mL hydrocortisone (Sigma-Aldrich, H0888) and 0.5 μg/ml puromycin (Life Technologies, A11138-02), unless stated otherwise. […]
Glass vials equipped with Teflon septa were cleaned with nitric acid 65% (w/v) (VWR, Suprapur, 1.00441.0250), washed with ultrapure water (Sigma-Aldrich, 1012620500) and dried. […] Cells were then counted using an automated cell counter (Entek) and transferred in 100 μL 1×PBS to the cleaned glass vials, and samples were lyophilized using a freeze dryer (CHRIST, 22080). […] 56Fe concentrations were measured using an Agilent 7900 ICP-QMS in low-resolution mode. […] Isotopes were measured using a collision-reaction interface with helium gas (5 mL/min) to remove polyatomic interferences. […]

[8] = tested on: Cells treated with a ferroptosis inducer; test: BODIPY-C11 lipid peroxidation, cells treated with a ferroptosis inducer (FIG. 6a); format: cell-based; details: co-treatment with ferroptosis inducer
Procedure: as §3

[9] = tested on: Cells treated with a ferroptosis inducer; test: CellTiter-Blue cell viability with a ferroptosis inducer (FIG. 6b); format: cell-based; details: co-treatment with ferroptosis inducer
Procedure: Cell viability was evaluated by plating 4,000 cells/well in 96-well plates using CellTiter-Blue viability assay according to the manufacturer's protocol. CellTiter-Blue reagent (Promega, G8081) was added after 72 h treatment and cells were incubated for 2 h before recording fluorescence intensities (Eex. 560 nm; Eem. 590 nm) using a Perkin Elmer Wallac 1420 Victor2 Microplate Reader.

[10] = tested on: BELA cells; test: Annexin/PI flow cytometry, RSL3-treated BELA cells (FIG. 7); format: cell-based; details: various concentrations of RSL3, 10 μM A3, 24 h
Procedure: as §3

[11] = tested on: PDAC cells; test: Cell apoptosis assay with Annexin V and propidium iodide, RSL3-treated PDAC cells (FIG. 10a); format: cell-based; details: RSL3 0.1, 0.5, 2, 10 μM, compounds 10 μM, 24 h
Procedure: as §1
PDAC cells were seeded on 6 well plates at the density of 2×10^5 cells/well. RSL3 (0.1, 0.5, 2, 10 µM) was added along with compounds (10 μM) on the following day and after 24 h, the media was recovered and the cells were typsinated. The cells were harvested, pelleted along with the media recovered, washed with PBS, and 100 μl of 1× annexin binding buffer containing annexin V and PI (according to the manufacturer's protocol Dead Cell Apoptosis Kits with Annexin V for Flow Cytometry (Invitrogen)). Finally, PBS buffer containing 10% FBS and 1 mM of EDTA, was added for flow cytometry.

[12] = reference in cyclic voltammetry; cited from earlier work

C#CCOc1ccc2c(c1)c(CCN(CC#C)CC#C)cn2CC#C [Compound A0]
anti-ferroptotic activity (active / inactive compound) [1]: inactive
localization in lysosomes [2]: doesn't go to lysosomes
binding / chelation of Fe^3+ (cyclic voltammetry) [3]: doesn't binds to Fe^3+

C#CCOc1ccc2[nH]cc(CCN(CC#C)CC#C)c2c1 [Compound A1]
anti-ferroptotic activity (active / inactive compound) [1]: Active
localization in lysosomes [2]: localized in lysosomes

C#CCNCCc1c[nH]c2ccc(O)cc12 [Compound A3]
colour of solution in the presence of FeCl3 and CuSO4, indicative of complex formation [4]: form differently colored solutions
complex formation with Fe(II), Fe(III) and Cu(II) [4]: form readily complexes
localization in lysosomes [5]: found to localize in lysosomes; also recorded: accumulate in lysosomes
RhoNox-M fluorescence (lysosomal Fe(II)) [6]: increase of RhoNox-M fluorescence
total intracellular copper (ICP-MS) [7]: increase
total intracellular iron (ICP-MS) [7]: increase
lipid peroxidation (BODIPY-C11 fluorescence) induced by a ferroptosis inducer [8]: reduces lipid peroxidation; also recorded: reduction of lipid peroxidation
cell viability / cell death caused by a ferroptosis inducer [9]: rescues cell death; also recorded: rescue of cell viability
cell death induced by the ferroptosis inducer RSL3 (Annexin/propidium iodide) [10]: protects against RSL3-induced ferroptosis; also recorded: rescued cell death
localization in lysosomes [2]: found to localize in lysosomes; also recorded: goes to lysosomes
colocalization with other cell organelles ([2]; organelle antibodies): not on other cell organelles; also recorded: doesn't colocalize with other cell organelles
protection against RSL3-induced ferroptosis (Annexin/propidium iodide) [11]: protects against RSL3-induced ferroptosis
binding / chelation of Fe^3+ (cyclic voltammetry) [3]: chelates/binds to Fe^3+

C#CCN(CC#C)CCc1c[nH]c2ccc(O)cc12 [Compound A4]
anti-ferroptotic activity (active / inactive compound) [1]: Active
localization in lysosomes [2]: localized in lysosomes

CC(=O)N(O)CCCCCNC(=O)CCC(=O)N(O)CCCCCNC(=O)CCC(=O)N(O)CCCCCN [DFO]
Fe^3+ chelation, known property of the reference [12]: known Fe^3+ chelator

Oc1ccc2[nH]cc(CCNC3CCCCC3)c2c1 [LC336]
RhoNox-M fluorescence (lysosomal Fe(II)) [6]: increase of RhoNox-M fluorescence

CC(CCCCCCC(C)NCCc1c[nH]c2ccc(O)cc12)NCCc1c[nH]c2ccc(O)cc12 (stereo not drawn) [LC357]
RhoNox-M fluorescence (lysosomal Fe(II)) [6]: increase of RhoNox-M fluorescence

CCCCCCCCCCNCCc1c[nH]c2ccc(O)cc12 [LT262A]
RhoNox-M fluorescence (lysosomal Fe(II)) [6]: increase of RhoNox-M fluorescence

CCCCNCCc1c[nH]c2ccc(O)cc12 [LT265B]
RhoNox-M fluorescence (lysosomal Fe(II)) [6]: increase of RhoNox-M fluorescence

NCCc1c[nH]c2ccc(O)cc12 [Serotonin, serotonin hydrochloride]
colour of solution in the presence of FeCl3 and CuSO4, indicative of complex formation [4]: form differently colored solutions
complex formation with Fe(II), Fe(III) and Cu(II) [4]: form readily complexes
